Measured values: patent publication US6716809B1, “Mage-A3 peptides presented by HLA class molecules” (priority 1997, dated 2004)

B1: MAGE-A3: MAGE-A3 protein; recombinant His-MAGE-A3 produced in E. coli, or expressed from MFG MAGE-A3 retrovirus in Example 6 (protein, listed as Homo sapiens)
chain: MPLEQRSQHCKPEEGLEARGEALGLVGAQAPATEEQEAASSSSTLVEVTLGEVPAAESPDPPQSPQGASSLPTTMNYPLWSQSYEDSSNQEEEGPSTFPDLESEFQAALSRKVAELVHFLLLKYRAREPVTKAEMLGSVVGNWQYFFPVIFSKASSSLQLVFGIELMEVDPIGHLYIFATCLGLSYDGLLGDNQIMPKAGLLIIVLAIIAREGDCAPEEKIWEELSVLEVFEGREDSILGDPKKLLTQHFVQENYLEYRQVPGSDPACYEFLWGPRALVETSYVKVLHHMVKISGGPHISYPPLHEWVLREGEE
modifications: His tag

Experiments:
[1] = tested on: CD4+ clone 436/B6.37 (B6/37); test: IFN-γ/TNF production by CD4+ clone B6/37 (clone 37) stimulated with peptide- or protein-pulsed EBV-B cells; format: cell-based, human
In short: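 CD4+ clone (2,500 cells) cocultured 18-20 h with 5,000 EBV-B cells pre-pulsed 2 h at 37 °C with MAGE-A3 peptides or 18-20 h with 20 μg/ml His-MAGE-A3 protein; ovalbumin as negative control. IFN-γ measured by ELISA, TNF by WEHI 164 clone 13 cytotoxicity (MTT); triplicates.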

clone 37 = test: Presentation of exogenous MAGE-A3 by HLA-DR13 dendritic cells to clone 37 (IFN-γ ELISA); format: cell-based, human; details: 10^4 HLA-DR13 dendritic cells in 100 μl pre-incubated 24 h; 2500 clone 37 cells, 20 h
Experimental: Clone 37 was obtained with autologous dendritic cells heavily loaded with MAGE-A3 protein. To determine the ability of dendritic cells that capture a quantity of MAGE-A3 protein released by a few MAGE-A3^+ cells to stimulate CD4^+ T cells, HLA-DR13 dendritic cells were incubated for 24h with decreasing concentrations of MAGE-A3 as depicted in (FIG. 9A). Stimulation of clone 37 was tested by washing the cells, distributing the cells in round-bottomed microwells, and adding 2500 clone 37 cells. IFN-γ secretion was measured by ELISA after 20h of coculture. Experiments were performed in triplicate. Half maximum production of IFN-γ was obtained when 10^4 dendritic cells in a volume of 100 μl were pre-incubated with 30 ng of MAGE-A3, the quantity of MAGE-A3 present in around 2×10^4 MZ2-MEL.43 tumor cells.

Row | Molecule | activation of clone B6/37 by 16 amino acid peptides [1] | stimulation of clone 37 ([1]; same conditions (peptide 10 ng/ml; HLA-DR13 EBV-B cells)) | quantity of MAGE-A3 giving half maximum production of IFN-γ (clone 37) [ng]
1 | FLLLKYRAREPVTKAE (listed as Homo sapiens) [MAGE-A3119-134] | unable to activate | not stimulated | –
2 | B1 | – | – | 30
